Experimental findings from ChEMBL document CHEMBL3351378, “Phenyl acetate derivatives, fluorine-substituted on the phenyl group, as rapid recovery hypnotic agents with reflex depression” (Eur J Med Chem, 2015) are described below.

SMILES strings stand for the structures. Calls of active or inactive are those of the source. The calls are words filed in the database; no cut-off is given here.

The subject of data set [1] is Rattus norvegicus. In words: Induction of hypnotic activity in iv dosed Sprague-Dawley rat assessed as reflex depression 10 secs following injection. Type of data set: functional, organism-based.
A short description of data set [2]: Toxicity in Sprague-Dawley rat assessed as motor coordination by rotarod test. Type of data set: organism-based. As to conditions: in vivo. For orientation: The rotarod test checks motor coordination on a turning rod.
Data set [3] relates to Rattus norvegicus. In words: Induction of hypnotic activity in iv dosed Sprague-Dawley rat assessed as reflex depression 180 secs following injection. Format: functional, organism-based.
The test system of data set [4] is Rattus norvegicus. In words: Induction of hypnotic activity in iv dosed Sprague-Dawley rat assessed as loss of righting reflex. Format: functional.
Data set [5] deals with Rattus norvegicus. The data set can be described thus: Induction of hypnotic activity in Sprague-Dawley rat assessed as recovery time to walking at 5.6 mg/kg/min after 20 mins to 3 hrs. Format: functional, organism-based.
For data set [6], the system named is Rattus norvegicus. In words: Induction of hypnotic activity in iv dosed Sprague-Dawley rat assessed as reflex depression 20 secs following injection. Type of data set: functional, organism-based.
The subject of data set [7] is Rattus norvegicus. The data set can be described thus: Induction of hypnotic activity in iv dosed Sprague-Dawley rat assessed as time duration of loss of righting reflex. Type of data set: functional.
In data set [8] the target is Glutamate NMDA receptor (Rattus norvegicus) (UniProt P35439+Q00959+Q00960+Q00961+Q62645+Q8VHN2+Q9R1M7). In words: Displacement of [3H]MK801 from NMDA receptor in Sprague-Dawley rat cerebral cortex membrane at 50 umol by liquid scintillation counting. Type of data set: tissue-based. Background: Loss of bound radioactivity is the signal in a displacement assay; it reports binding, not function.

Data set [9] can be described thus: Therapeutic index, ratio of […] for Sprague-Dawley rat by rotarod test to HD50 for hypnotic activity in iv dosed Sprague-Dawley rat. Format: organism-based. As to conditions: in vivo, read-out: TI.
The subject of data set [10] is Rattus norvegicus. In words: Induction of hypnotic activity in iv dosed Sprague-Dawley rat assessed as reflex depression 60 secs following injection. Type of data set: functional, organism-based.
Data set [11] concerns Rattus norvegicus. The data set can be described thus: Induction of hypnotic activity in iv dosed Sprague-Dawley rat assessed as reflex depression 30 secs following injection. Type of data set: functional, organism-based.
In data set [12] the test system is Rattus norvegicus. In words: Induction of hypnotic activity in iv dosed Sprague-Dawley rat assessed as reflex depression 120 secs following injection. Format: functional, organism-based.

Usually TD50 stands for the dose at which the toxic effect under study appears in half of the subjects. With `CCOC(=O)Cc1cc(OCC)c(OCC(=O)N(CC)CC)cc1F`, the result in the data set with Rattus norvegicus [1] and in the data set with Rattus norvegicus [5] was inactive. In addition, in data set [2], the TD50 was 74.5 mg/kg. Further, the outcome with Rattus norvegicus [3], with Rattus norvegicus [6], in the data set on Rattus norvegicus [10], with Rattus norvegicus [11] and with Rattus norvegicus [12] was Active. In addition, the HD50 in the data set with Rattus norvegicus [4] worked out at 5.6 mg/kg. Further, the Time in the data set with Rattus norvegicus [7] is 209.6 s. In addition, the Activity in data set [8] turned out to be 56.6%. The selectivity ratio in data set [9] is 14.4.

`CCCOC(=O)Cc1ccc(OCC(=O)N(CC)CC)c(OCC)c1` [AZD-3043]: the result in the data set with Rattus norvegicus [1] and in the data set on Rattus norvegicus [6] was Active. The TD50 in data set [2] worked out at 82.8 mg/kg. Also, in the data set with Rattus norvegicus [4], the HD50 came out at 7.9 mg/kg. Besides, the Time in the data set on Rattus norvegicus [7] worked out at 74.2 s. Moreover, the outcome in data set [8] was inactive. The selectivity ratio in [9] is 10.1.
